Test results from patent publication US20080124718A1, “METHODS OF DIAGNOSING, PREDICTING THERAPEUTIC EFFICACY AND SCREENING FOR NEW THERAPEUTIC AGENTS FOR LEUKEMIA” (Panacea Pharmaceuticals, Inc., priority 2006, published 2008).
Structures can show the parent of a compound that is named as a salt.

Experiments:
[1] = test system: human aspartyl (asparaginyl) β-hydroxylase (HAAH) mRNA expression; test: HAAH mRNA expression (qRT-PCR) in patient leukocytes cultured with or without imatinib; type: cell-based; details: 1 μM imatinib, 24 hours, vs untreated cells
From the text: This assay procedure allows the quantitative comparison of test RNA to a standard curve using single tube TaqMan® reactions.
Analyze as described in Perkin Elmer sequence detection system manual. A standard amplification curve of ASPH-B was obtained previously, to which unknown samples are compared to obtain the number of copies of HAAH mRNA in the sample.
Patient leukocytes were isolated from patient blood samples and grown in culture in the presence or absence of imatinib mesylate. After overnight incubation, qRT-PCR was used to determine human aspartyl (asparaginyl) β-hydroxylase (HAAH) mRNA expression in both treated and untreated cells. Percentage decrease in mRNA expression level is determined by comparing expression levels in treated vs. non-treated leukocytes from each individual patient.
[…]. This percentage change is consistent with a prediction of sensitivity to imatinib mesylate, based on numerous studies done by the present inventors. […].

[2] = test system: gastrointestinal stromal tumor (GIST) cells, which express an activating c-kit mutation; details: in vitro; cited from earlier work

In the case of Cc1ccc(NC(=O)c2ccc(CN3CCN(C)CC3)cc2)cc1Nc1nccc(-c2cccnc2)n1 [imatinib, Imatinib mesylate], the “decrease in HAAH expression after culture in the presence of imatinib” value ([1]; leukocytes of 27 CML patients (later responders)) is given as 30-75%, the “reduction in HAAH transcript levels after culture in the presence of imatinib” value ([1]; leukocytes of the 12 other CML patients (non-responders)) is given as < 25% and the apoptosis [2] is given as “induces apoptosis”. The proliferation [2] was “inhibits proliferation”.
